Test results from patent publication EP3820574B1, “3-(5-AMINO-1-OXOISOINDOLIN-2-YL)PIPERIDINE-2,6-DIONE DERIVATIVES AND THEIR USE IN THE TREATMENT OF IKAROS FAMILY ZINC FINGER 2 (IKZF2)-DEPENDENT DISEASES” (Novartis AG, priority 2018, dated 2020).

Experiments:
[1] = biological target: IKZF1 (Homo sapiens, UniProt Q13422+Q96SW2); assay: Prolabel quantification of IKZF1 protein levels in 293GT cells; details: read-out: IKZF1 EC50; Ikaros (IKZF1) degradation, prolabel-tagged fusion protein in 293GT cells; highest concentration 50 µM
Chain of IKZF1 (Q13422 whole entry, the tested form may be a part): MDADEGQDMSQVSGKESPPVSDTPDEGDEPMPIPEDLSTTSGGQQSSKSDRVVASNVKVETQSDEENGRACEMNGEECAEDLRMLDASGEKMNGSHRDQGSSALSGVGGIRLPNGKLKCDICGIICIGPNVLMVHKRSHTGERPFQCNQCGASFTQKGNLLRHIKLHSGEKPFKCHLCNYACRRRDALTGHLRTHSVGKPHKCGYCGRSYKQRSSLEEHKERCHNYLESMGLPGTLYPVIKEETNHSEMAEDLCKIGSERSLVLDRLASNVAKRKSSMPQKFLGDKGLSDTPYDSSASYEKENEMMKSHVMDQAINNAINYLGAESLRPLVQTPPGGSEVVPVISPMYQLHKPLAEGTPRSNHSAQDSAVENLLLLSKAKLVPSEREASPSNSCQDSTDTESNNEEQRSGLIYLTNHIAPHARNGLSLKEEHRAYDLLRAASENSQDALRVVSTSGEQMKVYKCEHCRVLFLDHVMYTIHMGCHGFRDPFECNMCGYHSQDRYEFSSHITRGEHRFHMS
Chain of IKZF1 (Q96SW2 whole entry, the tested form may be a part): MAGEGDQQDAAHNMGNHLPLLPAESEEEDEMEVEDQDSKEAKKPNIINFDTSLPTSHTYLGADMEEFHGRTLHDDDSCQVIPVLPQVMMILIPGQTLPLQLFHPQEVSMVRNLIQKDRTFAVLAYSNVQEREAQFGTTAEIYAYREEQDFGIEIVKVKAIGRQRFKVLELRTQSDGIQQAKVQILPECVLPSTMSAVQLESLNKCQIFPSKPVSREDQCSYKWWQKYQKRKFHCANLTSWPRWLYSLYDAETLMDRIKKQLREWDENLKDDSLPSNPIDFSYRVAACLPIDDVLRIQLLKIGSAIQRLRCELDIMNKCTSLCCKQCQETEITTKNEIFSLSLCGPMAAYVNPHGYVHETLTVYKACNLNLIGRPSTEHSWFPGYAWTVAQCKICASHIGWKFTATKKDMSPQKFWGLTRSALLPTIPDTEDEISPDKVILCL
Chain of IKZF1 (Q16531 whole entry partner, the tested form may be a part): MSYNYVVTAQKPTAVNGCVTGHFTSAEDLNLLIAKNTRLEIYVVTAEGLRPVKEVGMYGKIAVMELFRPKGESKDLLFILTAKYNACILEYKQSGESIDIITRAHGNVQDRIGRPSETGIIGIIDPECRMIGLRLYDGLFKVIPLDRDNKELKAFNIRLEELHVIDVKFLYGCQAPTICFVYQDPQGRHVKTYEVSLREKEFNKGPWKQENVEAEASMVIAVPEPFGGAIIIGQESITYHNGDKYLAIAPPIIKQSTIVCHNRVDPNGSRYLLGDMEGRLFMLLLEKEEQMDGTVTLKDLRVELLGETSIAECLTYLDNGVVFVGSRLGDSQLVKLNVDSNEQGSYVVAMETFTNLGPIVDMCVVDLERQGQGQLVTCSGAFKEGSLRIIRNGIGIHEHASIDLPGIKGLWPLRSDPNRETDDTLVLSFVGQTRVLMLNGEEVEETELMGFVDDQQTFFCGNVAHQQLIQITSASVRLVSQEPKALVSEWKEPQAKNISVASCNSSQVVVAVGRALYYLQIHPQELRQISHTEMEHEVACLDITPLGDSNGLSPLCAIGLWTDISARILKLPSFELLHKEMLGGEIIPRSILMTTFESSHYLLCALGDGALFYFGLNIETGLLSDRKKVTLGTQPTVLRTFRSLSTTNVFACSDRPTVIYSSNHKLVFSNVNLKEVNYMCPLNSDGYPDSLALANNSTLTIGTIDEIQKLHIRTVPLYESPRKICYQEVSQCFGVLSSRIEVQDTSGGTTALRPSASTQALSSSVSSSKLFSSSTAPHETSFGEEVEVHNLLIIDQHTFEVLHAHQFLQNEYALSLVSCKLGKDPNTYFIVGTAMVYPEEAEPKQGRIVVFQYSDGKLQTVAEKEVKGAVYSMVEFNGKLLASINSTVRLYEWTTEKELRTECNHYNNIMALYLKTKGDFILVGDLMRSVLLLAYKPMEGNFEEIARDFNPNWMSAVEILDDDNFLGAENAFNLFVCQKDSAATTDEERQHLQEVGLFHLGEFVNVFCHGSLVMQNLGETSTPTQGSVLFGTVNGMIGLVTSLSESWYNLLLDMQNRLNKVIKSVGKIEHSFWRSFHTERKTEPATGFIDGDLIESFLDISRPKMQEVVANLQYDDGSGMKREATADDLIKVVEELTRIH
Description: (§1) The Prolabel system from DiscoverX was used to develop high-throughput and quantitative assays to measure changes in IKZF1, IKZF2, and GSPT1 protein levels in response to compounds. […] The complementary fragment of beta-galactosidase (from DiscoverX), is added to the prolabel tag to form an active beta galactosidase enzyme whose activity can be precisely measured. In this way, the levels of a fusion protein with the prolabel tag can be quantified in cell lysates.
(§2) Lentiviral vectors, based on the Invitrogen pLenti6.2/V5 DEST backbone, were constructed that placed the prolabel tag upstream of IKZF1, IKZF2, or GSPT1 and expressed the fusion protein from a CMV promoter.
(§3) To ensure moderate and consistent expression of the prolabel fusion proteins across all cells in the population, stable cell lines were constructed from cells expressing a single copy of the construct. Lentivirus packaged with the constructs was made using the Virapower kit from Invitrogen.
(§4) The levels of prolabel tagged fusion proteins in compound treated cell lines were measured as follows: • Day 1, Cells were diluted to 1.0 x 10^6 cells/ml in normal growth medium. 17.5 µL of cells were plated in each well of a solid white 384 well plate. Plates were incubated overnight in a 37 °C tissue culture incubator. • Day 2, Serial dilutions of compounds were made in 384 well plates from 10 mM stocks. 15 µL of DMSO was added to each well of a 384 well plate. In the first column 15µL of stock compound was added. The solution was mixed and 15 µL was transferred to the next column. This was repeated until 20 two-fold dilutions were prepared. 2.5 µL of diluted compounds were transferred into 60 µL of cell culture medium in another 384 well plate, and mixed well. 2.5 µL of this mixture was added to the plated cells. The final DMSO concentration was 0.5% and the highest concentration of compound was 50 µM. Plates were incubated overnight (e.g., about 14 h, 18 h, or 24 h) in a 37 °C tissue culture incubator. • Day 3, Plates were removed from the incubator and allowed to equilibrate at rt for 30 minutes. Prolabel substrate (DiscoverX PathHunter Prolabel Detection Kit, User manual: 93-0180) was added as described by the manufacturers protocols. Plates were incubated at rt for three hours and luminescence was read using an Envision reader (Perkin Elmer) Data was analyzed and visualized using the Spotfire software package.

[2] = biological target: IKZF2 (Homo sapiens, UniProt Q96SW2+Q9UKS7); assay: Prolabel quantification of IKZF2 protein levels in 293GT cells; details: for inhibition at 10 µM: read-out: IKZF2 % protein reduction at 10 µM, 24 h; for DC50: read-out: IKZF2 EC50, Helios (IKZF2) degradation, prolabel-tagged fusion protein in 293GT cells, highest concentration 50 µM
Chain of IKZF2 (Q9UKS7 whole entry, the tested form may be a part): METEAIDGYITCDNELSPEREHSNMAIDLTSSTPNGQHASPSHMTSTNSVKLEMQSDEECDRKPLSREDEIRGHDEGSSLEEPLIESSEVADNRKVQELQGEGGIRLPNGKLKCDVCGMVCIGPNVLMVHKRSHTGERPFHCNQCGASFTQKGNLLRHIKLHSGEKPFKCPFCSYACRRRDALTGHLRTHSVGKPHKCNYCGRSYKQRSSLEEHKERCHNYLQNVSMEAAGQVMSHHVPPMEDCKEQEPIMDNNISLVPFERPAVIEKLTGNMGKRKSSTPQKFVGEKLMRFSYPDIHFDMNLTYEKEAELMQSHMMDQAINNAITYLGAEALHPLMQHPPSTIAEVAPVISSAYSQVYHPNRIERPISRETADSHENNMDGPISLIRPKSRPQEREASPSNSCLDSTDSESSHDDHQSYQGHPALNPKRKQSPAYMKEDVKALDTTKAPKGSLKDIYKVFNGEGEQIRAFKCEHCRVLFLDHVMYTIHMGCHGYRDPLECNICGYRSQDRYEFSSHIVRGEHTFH
Chain of IKZF2 (Q96SW2 whole entry, the tested form may be a part): as the sequence (Q96SW2 whole entry, the tested form may be a part) above
Chain of IKZF2 (Q16531 whole entry partner, the tested form may be a part): as the sequence (Q16531 whole entry partner, the tested form may be a part) above
Description: as §1, §2, §3, §4

[3] = biological target: GSPT1 (Homo sapiens, UniProt P15170+Q96SW2); details: read-out: GSPT1 EC50; GSPT1 degradation, prolabel-tagged fusion protein in 293GT cells; highest concentration 50 µM
Chain of GSPT1 (P15170 whole entry, the tested form may be a part): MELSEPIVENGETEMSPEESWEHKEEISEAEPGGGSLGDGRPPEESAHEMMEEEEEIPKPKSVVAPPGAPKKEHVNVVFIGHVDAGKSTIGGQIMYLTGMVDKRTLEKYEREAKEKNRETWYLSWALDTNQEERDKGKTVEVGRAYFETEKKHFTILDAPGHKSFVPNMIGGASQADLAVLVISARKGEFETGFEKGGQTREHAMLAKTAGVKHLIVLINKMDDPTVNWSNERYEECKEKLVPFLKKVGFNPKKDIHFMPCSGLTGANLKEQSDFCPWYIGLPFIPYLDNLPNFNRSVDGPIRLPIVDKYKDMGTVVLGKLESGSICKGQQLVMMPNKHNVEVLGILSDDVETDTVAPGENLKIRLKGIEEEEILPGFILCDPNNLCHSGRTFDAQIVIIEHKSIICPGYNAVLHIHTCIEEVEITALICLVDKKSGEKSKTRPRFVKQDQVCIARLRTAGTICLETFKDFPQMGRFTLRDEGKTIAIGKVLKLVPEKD
Chain of GSPT1 (Q96SW2 whole entry, the tested form may be a part): as the sequence (Q96SW2 whole entry, the tested form may be a part) above
Chain of GSPT1 (Q16531 whole entry partner, the tested form may be a part): as the sequence (Q16531 whole entry partner, the tested form may be a part) above
Description: as §1, §2, §3, §4

| SMILES | DC50 [1] [nM] | inhibition at 10 µM ([2]; 24 h) [%] | DC50 [2] [nM] | DC50 [3] [nM] | IKZF2 % protein reduction at 10 µM, 24 h ([2]; 10 µM, 24 h, 293GT cells) [%] |
| --- | --- | --- | --- | --- | --- |
| CN(C)[C@H]1CCCC[C@@H]1N(C)c1ccc2c(c1)C(=O)N(C1CCC(=O)NC1=O)C2=O (stereo partly drawn) [Compound I-96, 5-(((1S,2S)-2-(dimethylamino)cyclohexyl)(methyl)amino)-2-(2,6-dioxopiperidin-3-yl)isoindoline-1,3-dione] | 2370 | 50 | 1570 | > 50000 | – |
| CN(C)[C@H]1CCCC[C@@H]1Nc1ccc2c(c1)C(=O)N(C1CCC(=O)NC1=O)C2=O (stereo partly drawn) [Compound I-153, 5-(((1S,2S)-2-(dimethylamino)cyclohexyl)amino)-2-(2,6-dioxopiperidin-3-yl)isoindoline-1,3-dione] | > 30000 | 50 | 410 | > 50000 | – |
| CN(c1ccc2c(c1)C(=O)N(C1CCC(=O)NC1=O)C2=O)[C@H]1CCCC[C@@H]1NCc1cccnc1 (stereo partly drawn) [Compound I-143, 2-(2,6-dioxopiperidin-3-yl)-5-(methyl((1S,2S)-2-((pyridin-3-ylmethyl)amino)cyclohexyl)amino)isoindoline-1,3-dione] | > 30000 | 40 | 23100 | – | – |
| CN[C@H]1CCCC[C@@H]1N(C)c1ccc2c(c1)CN(C1CCC(=O)NC1=O)C2=O (stereo partly drawn) [Compound I-8, 3-(5-(methyl((1S,2S)-2-(methylamino)cyclohexyl)amino)-1-oxoisoindolin-2-yl)piperidine-2,6-dione] | > 50000 | 65 | 103 | > 50000 | – |
| O=C1CCC(N2Cc3cc(N[C@H]4CCCC[C@@H]4OCc4ccccc4)ccc3C2=O)C(=O)N1 (stereo partly drawn) [Compound I-4, 3-(5-(((1S,2S)-2-(benzyloxy)cyclohexyl)amino)-1-oxoisoindolin-2-yl)piperidine-2,6-dione] | – | – | – | > 30000 | – |
| CN[C@@H]1CCCC[C@H]1N(C)c1ccc2c(c1)CN(C1CCC(=O)NC1=O)C2=O (stereo partly drawn) [Compound I-2, 3-(5-(methyl((1R,2R)-2-(methylamino)cyclohexyl)amino)-1-oxoisoindolin-2-yl)piperidine-2,6-dione] | > 30000 | 0 | > 30000 | > 30000 | – |
| CN[C@@H]1CCCC[C@H]1N(C)c1ccc2c(c1)CN(C1CCC(=O)NC1=O)C2=O (relative stereo) [Compound I-9, trans-3-(5-(methyl(-2-(methylamino)cyclohexyl)amino)-1-oxoisoindolin-2-yl)piperidine-2,6-dione] | > 50000 | – | 113 | > 50000 | 65 |
| CN[C@H]1CCC[C@@H]1N(C)c1ccc2c(c1)C(=O)N(C1CCC(=O)NC1=O)C2=O (stereo partly drawn) [Compound I-128, 2-(2,6-dioxopiperidin-3-yl)-5-(methyl((1S,2S)-2-(methylamino)cyclopentyl)amino) isoindoline-1,3-dione] | > 30000 | 30 | > 30000 | – | – |
| CN[C@H]1CCCC[C@@H]1N(C)c1ccc2c(c1)C(=O)N(C1CCC(=O)NC1=O)C2=O (stereo partly drawn) [Compound I-114, 2-(2,6-dioxopiperidin-3-yl)-5-(methyl((1S,2S)-2-(methylamino)cyclohexyl)amino)isoindoline-1,3-dione] | 290 | 70 | 24 | > 50000 | – |
| CN(c1ccc2c(c1)C(=O)N(C1CCC(=O)NC1=O)C2=O)[C@H]1CCCC[C@@H]1NCc1ccccc1 (stereo partly drawn) [Compound I-133, 5-(((1S,2S)-2-(benzylamino)cyclohexyl)(methyl)amino)-2-(2,6-dioxopiperidin-3-yl)isoindoline-1,3-dione] | > 30000 | 75 | 450 | – | – |
| CCN[C@H]1CCCC[C@@H]1N(CC)c1ccc2c(c1)CN(C1CCC(=O)NC1=O)C2=O (stereo partly drawn) [Compound I-55, 3-(5-(ethyl((1S,2S)-2-(ethylamino)cyclohexyl)amino)-1-oxoisoindolin-2-yl)piperidine-2,6-dione] | > 30000 | 10 | – | – | – |
| CN(c1ccc2c(c1)C(=O)N(C1CCC(=O)NC1=O)C2=O)[C@H]1CCCC[C@@H]1NCC(=O)O (stereo partly drawn) [Compound I-148, ((1S,2S)-2-((2-(2,6-dioxopiperidin-3-yl)-1,3-dioxoisoindolin-5-yl)(methyl)amino)cyclohexyl)glycine] | > 30000 | 40 | 11300 | – | – |
| O=C1CCC(N2Cc3cc(N[C@H]4CCCC[C@@H]4O)ccc3C2=O)C(=O)N1 (stereo partly drawn) [Compound I-1, 3-(5-(((1S,2S)-2-hydroxycyclohexyl)amino)-1-oxoisoindolin-2-yl)piperidine-2,6-dione] | > 30000 | 20 | – | > 30000 | – |
| CN[C@H]1CCCCC[C@@H]1N(C)c1ccc2c(c1)C(=O)N(C1CCC(=O)NC1=O)C2=O (stereo partly drawn) [Compound I-109, 2-(2,6-dioxopiperidin-3-yl)-5-(methyl((1S,2S)-2-(methylamino)cycloheptyl)amino)isoindoline-1,3-dione] | > 30000 | 70 | 230 | > 50000 | – |
| O=C1CCC(N2Cc3cc(N[C@H]4CCCC[C@@H]4NCc4ccccc4)ccc3C2=O)C(=O)N1 (stereo partly drawn) [Compound I-3, 3-(5-(((1S,2S)-2-(benzylamino)cyclohexyl)amino)-1-oxoisoindolin-2-yl)piperidine-2,6-dione] | > 30000 | 65 | 29 | > 30000 | – |
| CN(c1ccc2c(c1)C(=O)N(C1CCC(=O)NC1=O)C2=O)[C@H]1CCCC[C@@H]1N (stereo partly drawn) [Compound I-99, 5-(((1S,2S)-2-aminocyclohexyl)(methyl)amino)-2-(2,6-dioxopiperidin-3-yl)isoindoline-1,3-dione] | 5200 | 70 | 150 | > 50000 | – |
| O=C1CCC(N2Cc3cc(N[C@H]4CCCC[C@@H]4NCC4CCCCC4)ccc3C2=O)C(=O)N1 (stereo partly drawn) [Compound I-12, 3-(5-(((1S,2S)-2-((cyclohexylmethyl)amino)cyclohexyl)amino)-1-oxoisoindolin-2-yl)piperidine-2,6-dione] | > 30000 | 65 | 36 | – | – |
| CN[C@H]1CCCC[C@@H]1Nc1ccc2c(c1)CN(C1CCC(=O)NC1=O)C2=O (stereo partly drawn) [Compound I-10, 3-(5-(((1S,2S)-2-(methylamino)cyclohexyl)amino)-1-oxoisoindolin-2-yl)piperidine-2,6-dione] | > 30000 | 50 | 990 | > 50000 | – |
| N[C@H]1CCCC[C@@H]1Nc1ccc2c(c1)CN(C1CCC(=O)NC1=O)C2=O (stereo partly drawn) [Compound I-7, 3-(5-(((1S,2S)-2-aminocyclohexyl)amino)-1-oxoisoindolin-2-yl)piperidine-2,6-dione] | > 50000 | 30 | 183 | – | – |
| CCN[C@H]1CCCC[C@@H]1N(C)c1ccc2c(c1)C(=O)N(C1CCC(=O)NC1=O)C2=O (stereo partly drawn) [Compound I-104, 2-(2,6-dioxopiperidin-3-yl)-5-(((1S,2S)-2-(ethylamino)cyclohexyl)(methyl)amino)isoindoline-1,3-dione] | 51 | 80 | 49 | > 50000 | – |
| O=C1CCC(N2Cc3cc(N[C@H]4CCC[C@@H]4N4CCCCC4)ccc3C2=O)C(=O)N1 (stereo partly drawn) [Compound I-14, 3-(1-oxo-5-(((1S,2S)-2-(piperidin-1-yl)cyclopentyl)amino)isoindolin-2-yl)piperidine-2,6-dione] | > 30000 | 40 | 730 | – | – |
| CN(c1ccc2c(c1)C(=O)N(C1CCC(=O)NC1=O)C2=O)[C@H]1CCCC[C@@H]1NCC1(C(F)(F)F)CC1 (stereo partly drawn) [Compound I-138, 2-(2,6-dioxopiperidin-3-yl)-5-(methyl((1S,2S)-2-(((1-(trifluoromethyl)cyclopropyl)methyl)amino)cyclohexyl)amino)isoindoline-1,3-dione] | > 30000 | 30 | – | – | – |
| CC(C)CN[C@H]1CCCC[C@@H]1Nc1ccc2c(c1)CN(C1CCC(=O)NC1=O)C2=O (stereo partly drawn) [Compound I-15, 3-(5-(((1S,2S)-2-(isobutylamino)cyclohexyl)amino)-1-oxoisoindolin-2-yl)piperidine-2,6-dione] | > 30000 | 60 | 94 | – | – |
| CN(Cc1ccccc1)[C@H]1CCCC[C@@H]1N(C)c1ccc2c(c1)CN(C1CCC(=O)NC1=O)C2=O (stereo partly drawn) [Compound I-6, 3-(5-(((1S,2S)-2-(benzyl(methyl)amino)cyclohexyl)(methyl)amino)-1-oxoisoindolin-2-yl)piperidine-2,6-dione] | > 50000 | 65 | 43 | – | – |
| CCN[C@H]1CCCC[C@@H]1Nc1ccc2c(c1)CN(C1CCC(=O)NC1=O)C2=O (stereo partly drawn) [Compound I-40, 3-(5-(((1S,2S)-2-(ethylamino)cyclohexyl)amino)-1-oxoisoindolin-2-yl)piperidine-2,6-dione] | > 30000 | 45 | 1670 | – | – |
| CC(C)N[C@H]1CCCC[C@@H]1Nc1ccc2c(c1)CN(C1CCC(=O)NC1=O)C2=O (stereo partly drawn) [Compound I-45, 3-(5-(((1S,2S)-2-(isopropylamino)cyclohexyl)amino)-1-oxoisoindolin-2-yl)piperidine-2,6-dione] | > 30000 | 70 | 100 | > 50000 | – |
| CN[C@H]1CCCC[C@@H]1N(C)c1ccc2c(c1F)CN(C1CCC(=O)NC1=O)C2=O (stereo partly drawn) [Compound I-163, 3-(4-fluoro-5-(methyl((1S,2S)-2-(methylamino)cyclohexyl)amino)-1-oxoisoindolin-2-yl)piperidine-2,6-dione] | 570 | 80 | 66 | – | – |
